The source of these data is US20060089395A1, “Nf-kb activation inhibitors” (priority 2002, published 2006).

Some results are limits rather than exact numbers.

For the test, the system named is NF-κ B. The test is described as follows: Inhibitory activity of NF-κ B activation, luciferase reporter assay in HepG2 under TNF-α stimulation. It counts as cell-based, human. The following applies: HepG2, TNF-α (40 ng/ml), 4 hours; for inhibition at 1 µg/mL / inhibition at 10 µg/mL: Homo sapiens; for Inhibitory Ratio of NF-κ B Activation(%) Drug Concentration 1 μg/mL / inhibition at 1 µg/mL: 1 μg/mL; for inhibition at 1 µg/mL: read-out: Inhibitory Ratio of NF-κ B Activation(%) Drug Concentration 1 μg/mL; for Inhibitory Ratio of NF-κ B Activation(%) Drug Concentration 10 μg/mL / inhibition at 10 µg/mL: 10 μg/mL; for inhibition at 10 µg/mL: read-out: Inhibitory Ratio of NF-κ B Activation(%) Drug Concentration 10 μg/mL. In outline: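 HepG2 cells transiently transfected with a luciferase reporter driven by five tandem NF-κB binding sites, then incubated 6–24 h. Stimulated with TNF-α (40 ng/ml) with or without test compound for 4 h. Intracellular luciferase read by chemiluminescence; inhibition expressed relative to activity without compound.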
On the technique in general: Reporter assays use an easily measured gene product as a stand-in for the process of interest.

Regarding `CC(C)NC(=O)c1sc(NC(=O)c2cc(Br)ccc2O)nc1-c1ccccc1` [Compound No. 222], the “Inhibitory Ratio of NF-κ B Activation(%) Drug Concentration 1 μg/mL” value came out at 49.6% and the “Inhibitory Ratio of NF-κ B Activation(%) Drug Concentration 10 μg/mL” value is given as 91.3%.
For `O=C(Nc1nc(-c2ccccc2)c(C(=O)NCCc2ccccc2)s1)c1cc(Br)ccc1O` [Compound No. 223] the same measures were 33.3% and 60.4%.
For `CCOC(=O)c1sc(NC(=O)c2cc(Br)ccc2O)nc1C(F)(F)F` [Compound No. 224] the same measures were 87.6% and 96.5%.
For `CCOC(=O)c1sc(NC(=O)c2cc(-c3ccc(F)cc3)ccc2O)nc1-c1ccccc1` [Compound No. 226] the same measures were 45.0% and 85.8%.
On to `CCOC(=O)c1sc(NC(=O)c2cc(-c3ccc(F)cc3F)ccc2O)nc1-c1ccccc1` [Compound No. 227], for which the “Inhibitory Ratio of NF-κ B Activation(%) Drug Concentration 1 μg/mL” value was 31.8% and the “Inhibitory Ratio of NF-κ B Activation(%) Drug Concentration 10 μg/mL” value turned out to be 90.3%.
In the case of `CCOC(=O)c1sc(NC(=O)c2cc(-n3cccc3)ccc2O)nc1-c1ccccc1` [Compound No. 229], the “Inhibitory Ratio of NF-κ B Activation(%) Drug Concentration 1 μg/mL” value was determined as 74.0% and the “Inhibitory Ratio of NF-κ B Activation(%) Drug Concentration 10 μg/mL” value was 90.1%.
`CCOC(=O)c1sc(NC(=O)c2cc(-c3cccs3)ccc2O)nc1-c1ccccc1` [Compound No. 230, 2-[2-Hydroxy-5-(2-thienyl)benzoyl]amino-4-phenylthiazole-5-carboxylic acid ethyl ester]: the inhibition at 1 µg/mL is 40.8% and the inhibition at 10 µg/mL came to 84.8%.
On the same counts, the results for `O=C(Nc1nc(-c2cc(C(F)(F)F)cc(C(F)(F)F)c2)cs1)c1cc(Cl)ccc1O` [Compound No. 231, 5-Chloro-2-hydroxy-N-{4-[3,5-bis(trifluoromethyl)phenyl]thiazol-2-yl}benzamide] are 95.9% and 94.5%.
As for `CCOC(=O)c1c(NC(=O)c2cc(Cl)ccc2O)sc2c1CCCC2` [Compound No. 232], the “Inhibitory Ratio of NF-κ B Activation(%) Drug Concentration 1 μg/mL” value is 88.2% and the “Inhibitory Ratio of NF-κ B Activation(%) Drug Concentration 10 μg/mL” value stood at 85.4%.
On the same counts, the results for `O=C(Nc1cc(-c2ccccc2)[nH]n1)c1cc(Br)ccc1O` [Compound No. 233] are 26.6% and 84.7%.
For the compound `CCc1nc(NC(=O)c2cc(Br)ccc2O)oc1CC` [Compound No. 234, 5-Bromo-N-(4,5-diethyloxazol-2-yl)-2-hydroxybenzamide], the inhibition at 1 µg/mL came to 29.1% and the inhibition at 10 µg/mL was 63.1%.
As to `O=C(Nc1nc(-c2ccccc2)c(-c2ccccc2)o1)c1cc(Br)ccc1O` [Compound No. 235], the “Inhibitory Ratio of NF-κ B Activation(%) Drug Concentration 10 μg/mL” value is reported as 81.8%.
Take `O=C(Nc1nc(-c2ccco2)c(-c2ccco2)o1)c1cc(Br)ccc1O` [Compound No. 236, 5-Bromo-N-[4,5-bis(furan-2-yl)oxazol-2-yl]-2-hydroxybenzamide]: the inhibition at 1 µg/mL came out at 21.4% and the inhibition at 10 µg/mL was determined as 56%.
In the case of `O=C(Nc1nnc(C(F)(F)F)s1)c1ccccc1O` [Compound No. 237, 2-Hydroxy-N-(5-trifluoromethyl-1,3,4-thiadiazol-2-yl)benzamide], the inhibition at 10 µg/mL was determined as 81.9%.
`O=C(Nc1nnc(C(F)(F)F)s1)c1cc(Br)ccc1O` [Compound No. 238]: the “Inhibitory Ratio of NF-κ B Activation(%) Drug Concentration 1 μg/mL” value is recorded as 26.1% and the “Inhibitory Ratio of NF-κ B Activation(%) Drug Concentration 10 μg/mL” value turned out to be 90.3%.
In the case of `COc1cc(Cl)nc(NC(=O)c2cc(Cl)ccc2O)n1` [Compound No. 241], the “Inhibitory Ratio of NF-κ B Activation(%) Drug Concentration 1 μg/mL” value turned out to be 25.5% and the “Inhibitory Ratio of NF-κ B Activation(%) Drug Concentration 10 μg/mL” value came to 78.9%.
`O=C(Nc1cnc2ccccc2c1)c1cc(Cl)ccc1O` [Compound No. 242]: the “Inhibitory Ratio of NF-κ B Activation(%) Drug Concentration 10 μg/mL” value stood at 85.7%.
Consider `O=C(Nc1cccc(Br)n1)c1cc(Cl)ccc1O` [Compound No. 243], for which the “Inhibitory Ratio of NF-κ B Activation(%) Drug Concentration 1 μg/mL” value is 84.2% and the “Inhibitory Ratio of NF-κ B Activation(%) Drug Concentration 10 μg/mL” value is 95.1%.
For `O=C(Nc1cc(C(F)(F)F)cc(C(F)(F)F)c1)c1cc(S(=O)(=O)Nc2cc(C(F)(F)F)cc(C(F)(F)F)c2)ccc1Cl` [Compound No. 247], the “Inhibitory Ratio of NF-κ B Activation(%) Drug Concentration 10 μg/mL” value is above 99.9%.
Regarding `O=C(Nc1cc(C(F)(F)F)cc(C(F)(F)F)c1)c1cccc(-c2ccccc2)c1O` [Compound No. 249, N-[3,5-bis(trifluoromethyl)phenyl]-2-hydroxy-3-phenylbenzamide], the inhibition at 1 µg/mL came out at 86.6% and the inhibition at 10 µg/mL was 90.7%.
On to `O=C(Nc1cc(C(F)(F)F)cc(C(F)(F)F)c1)c1ccc(F)cc1O` [Compound No. 250], for which the “Inhibitory Ratio of NF-κ B Activation(%) Drug Concentration 1 μg/mL” value is 94.2% and the “Inhibitory Ratio of NF-κ B Activation(%) Drug Concentration 10 μg/mL” value is 95.4%.
On the same counts, the results for `N#Cc1ccc(Oc2ccc(C(F)(F)F)cc2NC(=O)c2cc(Cl)ccc2O)cc1` [Compound No. 252] are 93.9% and 96.3%.
In the case of `O=C(Nc1nc(-c2ccc(Cl)cc2Cl)cs1)c1cc(Cl)ccc1O` [Compound No. 255, 5-Chloro-2-hydroxy-N-[4-(2,4-dichlorophenyl)thiazol-2-yl]benzamide], the inhibition at 1 µg/mL was above 99.9%.
Same read-out and setting: the same measure for `CC(C)c1cccc(C(=O)Nc2cc(C(F)(F)F)cc(C(F)(F)F)c2)c1O` [Compound No. 256, N-[3,5-bis(trifluoromethyl)phenyl]-2-hydroxy-3-isopropylbenzamide]: 92.1%.
Consider `CC(C)c1cc(Br)cc(C(=O)Nc2cc(C(F)(F)F)cc(C(F)(F)F)c2)c1O` [Compound No. 257], for which the “Inhibitory Ratio of NF-κ B Activation(%) Drug Concentration 1 μg/mL” value was above 99.9%.
On the same count and under the same terms, the same measure for `Cc1cc(Br)cc(C(=O)Nc2cc(C(F)(F)F)cc(C(F)(F)F)c2)c1O` [Compound No. 258]: above 99.9%; for `O=C(Nc1cc(C(F)(F)F)cc(C(F)(F)F)c1)c1cc(Br)cc(-c2ccccc2)c1O` [Compound No. 259]: above 99.9%.
Turning to `O=C(Nc1nc(-c2ccc(Cl)c(Cl)c2)cs1)c1cc(Cl)ccc1O` [Compound No. 260, 5-Chloro-2-hydroxy-N-[4-(3,4-dichlorophenyl)thiazol-2-yl]benzamide], the inhibition at 1 µg/mL is above 99.9%.
As to `O=C(Nc1nc(-c2ccc(C(F)(F)F)cc2)cs1)c1cc(Cl)ccc1O` [Compound No. 261, 5-Chloro-2-hydroxy-N-{4-[4-(trifluoromethyl)phenyl]thiazol-2-yl}benzamide], the inhibition at 1 µg/mL is above 99.9%.
On the same count and under the same terms, as for `O=C(Nc1cc(C(F)(F)F)cc(C(F)(F)F)c1)c1ccc(-c2ccccc2)cc1O` [Compound No. 262, N-[3,5-Bis(trifluoromethyl)phenyl]-2-hydroxy-4-phenylbenzamide], the figure is above 99.9%.
In the case of `O=C(Nc1nc(-c2cc(F)ccc2F)cs1)c1cc(Cl)ccc1O` [Compound No. 263, 5-Chloro-2-hydroxy-N-[4-(2,5-difluorophenyl)thiazol-2-yl]benzamide], the inhibition at 1 µg/mL was above 99.9%.
On the same count and under the same terms, the same measure for `COc1ccc(-c2csc(NC(=O)c3cc(Cl)ccc3O)n2)cc1` [Compound No. 264, 5-Chloro-2-hydroxy-N-[4-(4-methoxyphenyl)thiazol-2-yl]benzamide]: above 99.9%; for `O=C(Nc1nc(-c2cccc(C(F)(F)F)c2)cs1)c1cc(Cl)ccc1O` [Compound No. 265, 5-Chloro-2-hydroxy-N-{4-[3-(trifluoromethyl)phenyl]thiazol-2-yl}benzamide]: above 99.9%.
Turning to `O=C(Nc1nc(-c2c(F)c(F)c(F)c(F)c2F)cs1)c1cc(Cl)ccc1O` [Compound No. 266, 5-Chloro-2-hydroxy-N-[4-(2,3,4,5,6-pentafluorophenyl)thiazol-2-yl]benzamide], the inhibition at 1 µg/mL was above 99.9%.
`CC(=O)Oc1ccccc1C(=O)Nc1cc(C(F)(F)F)cc(C(F)(F)F)c1` [compound 1, 2-acetoxy-N-[3,5-bis(trifluoromethyl)phenyl]benzamide]: the inhibition at 1 µg/mL stood at 90.9% and the inhibition at 10 µg/mL is 97.1%.
For the compound `O=C(Nc1cc(C(F)(F)F)cc(C(F)(F)F)c1)c1ccccc1O` [compound 2], the “Inhibitory Ratio of NF-κ B Activation(%) Drug Concentration 1 μg/mL” value is given as 93.3% and the “Inhibitory Ratio of NF-κ B Activation(%) Drug Concentration 10 μg/mL” value is listed as 95.6%.
For `O=C(Nc1cc(C(F)(F)F)cc(C(F)(F)F)c1)c1cc(F)ccc1O` [compound 3] the same measures were 81.5% and 94.3%.
On the same counts, the results for `CC(=O)Oc1ccc(Cl)cc1C(=O)Nc1cc(C(F)(F)F)cc(C(F)(F)F)c1` [compound 5] are 96.5% and 99.2%.
Turning to `N#Cc1ccc(O)c(C(=O)Nc2cc(C(F)(F)F)cc(C(F)(F)F)c2)c1` [compound 9, N-[3,5-Bis(trifluoromethyl)phenyl]-5-cyano-2-hydroxybenzamide], the inhibition at 1 µg/mL was 92.2% and the inhibition at 10 µg/mL was 99.6%.
As for `Cc1ccc(O)c(C(=O)Nc2cc(C(F)(F)F)cc(C(F)(F)F)c2)c1` [compound 10], the “Inhibitory Ratio of NF-κ B Activation(%) Drug Concentration 1 μg/mL” value came out at 95.8% and the “Inhibitory Ratio of NF-κ B Activation(%) Drug Concentration 10 μg/mL” value is reported as 99.4%.
As for `Cc1ccc(C(F)(F)F)cc1NC(=O)c1cc(Cl)ccc1O` [compound 92], the “Inhibitory Ratio of NF-κ B Activation(%) Drug Concentration 1 μg/mL” value is recorded as 93.8% and the “Inhibitory Ratio of NF-κ B Activation(%) Drug Concentration 10 μg/mL” value amounted to 97.9%.
